Assay results taken from patent publication US4402964A, “N-Aryl-N'-(3-methyl or ethyl-4-oxothiazolidinylidene)ureas useful for the treatment of epilepsy” (McNeilab, Inc., priority 1981, dated 1983).

Test system: tonic extensor seizure caused by applying an electric shock to mice via corneal electrodes
Assay: Maximal Electroshock (MES) test in mice (anticonvulsant activity)
Format: in vivo
Design: key to Mice MES test results (IA): IA: inactive
Conditions: for ED50: Mus musculus, po, read-out: ED50, Mice MES test results dose (50% of the animals show a block of tonic extensor convulsions)
Text: Activity in the MES test, indicating anticonvulsant activity, is characterized by a block of the tonic extensor seizure caused by applying an electric shock to mice via corneal electrodes as described in Swinyard et al., J. Pharmacol. Exp. Ther., 106, 319-330 (1952) and recorded as % block. A more recent description of current practice in anticonvulsant drug screening has also been reported by Swinyard et al., Epilepsia, 19, 409-428 (1978).
In said table, the ED50 result means that 50% of the animals show a block of tonic extensor convulsions in the MES test.

[1] = 10 mg/kg p.o., mice, only dose available

## Cc1cccc(C)c1NC(=O)N=C1SCC(=O)N1C [Example I, N-(2,6-dimethylphenyl)-N'-(3-methyl-4-oxo-2-thiazolidinylidene)urea]
mice, p.o.
  ED50: 9.96 mg/kg

## CN1C(=O)CSC1=NC(=O)Nc1c(Cl)cccc1Cl [Example II, N-(2,6-dichlorophenyl)-N'-(3-methyl-4-oxo-2-thiazolidinylidene)urea]
mice, p.o.
  ED50: 28.3 mg/kg

## O=C1CSC(=NC(=O)Nc2ccccc2)N1 [Example X-888, reference compound]
200 mg/kg p.o.
  Mice MES test results (activity in words): not active
200 mg/kg p.o., mice
  Mice MES test results (IA): IA

## CN1C(=O)CSC1=NC(=O)Nc1c(F)cccc1F [Example X]
mice, p.o.
  ED50: 52.2 mg/kg

## CCc1cccc(C)c1NC(=O)N=C1SCC(=O)N1C [III]
[1]
  % block (MES test): 10%
  Mice MES test results (activity in words): Active

## Cc1cccc(Cl)c1NC(=O)N=C1SCC(=O)N1C [IV, N-(2-chloro-6-methylphenyl)-N'-(3-methyl-4-oxo-2-thiazolidinylidene)urea]
mice, p.o.
  ED50: 28.5 mg/kg

## COc1cccc(OC)c1NC(=O)N=C1SCC(=O)N1C [IX]
mice, p.o.
  ED50: 35.7 mg/kg

## Cc1cccc(C)c1NC(=O)N=C1NC(=O)CS1 [McN-4241, reference compound]
mice, p.o.
  ED50: 242 mg/kg
mice, p.o., range printed in parentheses with the ED50
  ED50 range, Mice MES test results: 196.5 to 296.9 mg/kg

## O=C1CSC(=NC(=O)Nc2c(Cl)cccc2Cl)N1 [McN-4242, reference compound]
200 mg/kg p.o., mice
  Mice MES test results (IA): IA

## Cc1cccc(NC(=O)N=C2SCC(=O)N2C)c1C [VIII]
mice, p.o.
  ED50: 128 mg/kg

## CN1C(=O)CSC1=NC(=O)Nc1c(Br)cccc1Br [VII]
mice, p.o.
  ED50: 83.9 mg/kg

## CN1C(=O)CSC1=NC(=O)Nc1c(Br)cc(F)cc1Br [VI]
200 mg/kg p.o.
  Mice MES test results (activity in words): Active
200 mg/kg p.o., mice
  % block (MES test): 60%

## CCc1cccc(CC)c1NC(=O)N=C1SCC(=O)N1C [V]
mice, p.o.
  ED50: 17.5 mg/kg
